Molecules are shown by their SMILES. Where only a bound is given, the exact number is not on record here.

The target of the first experiment is T1, autotaxin (Homo sapiens, UniProt Q13822).
T1 construct: purchased Cayman 10803
The experiment can be described thus: Autotaxin inhibitor screening assay (choline release from LPC). The class given is biochemical.
Details: not given
The method, then:
Autotaxin activity was measured by choline release from LPC in presence or absence of compound.
Twenty (20) ng autotaxin (10803, Cayman, MI, USA) was incubated with 100 μM 14:0 LPC (855575P, Avanti, AL, USA) in a final volume of 100 μL buffer containing 50 mM Tris pH 8.0, 0.01% Triton X-100, 50 mM CaCl2, 1 unit/ml choline oxidase, 2 unit/ml HRP, 2 mM homovanilic acid (HVA). The relative amount of released choline was measured by HVA fluorescence in a 96-well plate. Fluorescent intensity was determined at λex/λem=320/450 nm every 60 seconds for 90 minutes with a SpectraMax i3 (Molecular Devices, CA, USA). Data analysis was performed using GraphPad Prism (GraphPad, La Jolla Calif., USA).
Inhibition %=[1−SlopeTA−SlopeBlank)/(Slopevehicle−SlopeBlank)]×100%
For `Cc1cc(Cl)cc(COC(=O)N(C)C2CCc3ccc(C4=CCN(C(=O)CN5C(=O)CSC5=S)CC4)cc32)c1` (centres unmarked) [Compound 92], the inhibition at 1 µM is more than 80%. On the same count and under the same terms, the value for `CN(C(=O)OCc1cc(F)cc(Cl)c1)C1CCc2ccc(C3=CCN(C(=O)CN4C(=O)CSC4=S)CC3)cc21` (centres unmarked) [Compound 97] was more than 80%.

Take `CCC1Oc2ccc(C3=CCN(C(=O)CN4CCOCC4)CC3)cc2C1N(C)C(=O)OCc1cc(Cl)cc(Cl)c1` (centres unmarked) [Compound 120]: the inhibition at 1 µM is less than 50%.

Still in this experiment, the particulars now being: inhibition of autotaxin enzyme activity at 1 μM compound; 100 μM 14:0 LPC; read-out: Inhibition.
Consider `CN(C(=O)OCc1cc(Cl)cc(Cl)c1)c1csc2ccc(C3=CCN(C(=O)CN4C(=O)CSC4=S)CC3)cc12` [Compound 85], for which the inhibition at 1 µM is more than 80%. The same measure, in the same setting: the value for `CN(C(=O)OCc1cc(Cl)cc(C(F)(F)F)c1)C1CCc2ccc(C3=CCN(C(=O)CN4C(=O)CSC4=S)CC3)cc21` (centres unmarked) [Compound 93] was more than 80%; that for `Cc1cc(COC(=O)N(C)C2CCc3ccc(C4=CCN(C(=O)CN5C(=O)CSC5=S)CC4)cc32)cc(C(F)(F)F)c1` (centres unmarked) [Compound 94] was more than 80%. The same measure, in the same setting: the value for `CN(C(=O)OCc1cc(C(F)(F)F)cc(C(F)(F)F)c1)C1CCc2ccc(C3=CCN(C(=O)CN4C(=O)CSC4=S)CC3)cc21` (centres unmarked) [Compound 95] was more than 80%; that for `CN(C(=O)OCc1cc(Cl)ccc1Cl)C1CCc2ccc(C3=CCN(C(=O)CN4C(=O)CSC4=S)CC3)cc21` (centres unmarked) [Compound 96] was more than 80%; that for `Cc1oc2ccc(C3=CCN(C(=O)CN4C(=O)CSC4=S)CC3)cc2c1N(C)C(=O)OCc1cc(C(F)(F)F)cc(C(F)(F)F)c1` [Compound 102] was more than 80%.

With `Cc1oc2ccc(C3=CCN(C(=O)CS(C)(=O)=O)CC3)cc2c1N(C)C(=O)OCc1cc(C(F)(F)F)cc(C(F)(F)F)c1` [Compound 103], the inhibition at 1 µM is 50 to 80%. On the same count and under the same terms, in the case of `CCN(C(=O)OCc1cc(C(F)(F)F)cc(C(F)(F)F)c1)c1c(C)oc2ccc(C3=CCN(C(=O)CN4C(=O)CSC4=S)CC3)cc12` [Compound 105] it was more than 80%. For the compound `Cc1c(N(C)C(=O)OCc2cc(C(F)(F)F)cc(C(F)(F)F)c2)c2cc(C3=CCN(C(=O)CN4C(=O)CSC4=S)CC3)ccc2n1C` [Compound 109], the inhibition at 1 µM fell in the range of 50 to 80%. The same measure, in the same setting: in the case of `COc1cc(C2=CCN(C(=O)CN3C(=O)CSC3=S)CC2)cc2c(N(C)C(=O)OCc3cc(C(F)(F)F)cc(C(F)(F)F)c3)coc12` [Compound 112] it was more than 80%; in that of `CC1Cc2ccc(C3=CCN(C(=O)CN4C(=O)CSC4=S)CC3)cc2C1N(C)C(=O)OCc1cc(Cl)cc(Cl)c1` (centres unmarked) [Compound 117], more than 80%; in that of `CCC1Cc2ccc(C3=CCN(C(=O)CN4C(=O)CSC4=S)CC3)cc2C1N(C)C(=O)OCc1cc(Cl)cc(Cl)c1` (centres unmarked) [Compound 119], 50 to 80%.

Turning to `CCC1Cc2ccc(C3=CCN(C(=O)CS(C)(=O)=O)CC3)cc2C1N(C)C(=O)OCc1cc(Cl)cc(Cl)c1` (centres unmarked) [Compound 121], the inhibition at 1 µM was less than 50%.

With `O=C(Nc1noc2ccc(C3=CCN(C(=O)CN4C(=O)CSC4=S)CC3)cc12)OCc1cc(Cl)cc(Cl)c1` [Compound 127], the inhibition at 1 µM was in the range of 50 to 80%. Still for that read-out and setting: the value for `CN(C(=O)OCc1cc(Cl)cc(Cl)c1)c1noc2ccc(C3=CCN(C(=O)CN4C(=O)CSC4=S)CC3)cc12` [Compound 128] was 50 to 80%; that for `CCN(C(=O)OCc1cc(Cl)cc(Cl)c1)c1noc2ccc(C3=CCN(C(=O)CN4C(=O)CSC4=S)CC3)cc12` [Compound 129] was 50 to 80%; that for `CCN(C(=O)OCc1cc(Cl)cc(Cl)c1)C1CCc2ccc(C3=CCN(C(=O)CN4C(=O)CSC4=S)CC3)cc21` (centres unmarked) [Compound 130] was more than 80%. With `O=C(Nc1noc2ccc(C3=CCN(C(=O)CN4C(=O)CSC4=S)CC3)cc12)OCc1cc(C(F)(F)F)cc(C(F)(F)F)c1` [Compound 131], the inhibition at 1 µM is 50 to 80%. Still for that read-out and setting: in the case of `CN(C(=O)OCc1cc(C(F)(F)F)cc(C(F)(F)F)c1)c1noc2ccc(C3=CCN(C(=O)CN4C(=O)CSC4=S)CC3)cc12` [Compound 132] it was 50 to 80%; in that of `CCN(C(=O)OCc1cc(C(F)(F)F)cc(C(F)(F)F)c1)c1noc2ccc(C3=CCN(C(=O)CN4C(=O)CSC4=S)CC3)cc12` [Compound 133], 50 to 80%. On the same count and under the same terms, the value for `CN(C(=O)CCc1cc(Cl)cc(Cl)c1)C1CCc2ccc(C3=CCN(C(=O)CN4C(=O)CSC4=S)CC3)cc21` (centres unmarked) [Compound 137] was 50 to 80%; that for `CN(C(=O)CCc1cc(Cl)cc(Cl)c1)C1CCc2ccc(C3=CCN(C(=O)CCS(C)(=O)=O)CC3)cc21` (centres unmarked) [Compound 138] was 50 to 80%; that for `CN(C(=O)OCc1cc(Cl)cc(Cl)c1)C1CCc2ccc(C3=CCN(C(=O)N4CCN(S(C)(=O)=O)C4=O)CC3)cc21` (centres unmarked) [Compound 139] was less than 50%.

(Values after patent US20200157088A1, “BENZENE FUSED HETEROCYCLIC COMPOUND AND USE THEREOF” (TAIWANJ PHARMACEUTICALS CO., LTD., priority 2017, published 2020).)
